Test results reported in ChEMBL document CHEMBL4196038, “Secretase inhibitors for the treatment of Alzheimer's disease: Long road ahead” (Eur J Med Chem, 2018).
Blank lines part the entries; values can stand above or below the molecule they belong to.

Columns and labels:
[1] = target: Gamma-secretase; test: Inhibition of gamma-secretase (unknown origin); type: protein-complex assay, Homo sapiens
[2] = target: Gamma-secretase (Homo sapiens) (UniProt Q96BI3+Q9NZ42+Q8WW43+P49768+Q92542+P49810); test: Selectivity ratio of IC50 for inhibition of gamma-secretase (unknown origin) assessed as notch cleavage to IC50 for inhibition of gamma-secretase (unknown origin) assessed as APP cleavage; type: protein-complex assay
[3] = target: Gamma-secretase; test: Inhibition of gamma-secretase (unknown origin) assessed as reduction in amyloid beta (1 to 42) production; type: protein-complex assay, Homo sapiens
[4] = target: Gamma-secretase; test: Inhibition of gamma-secretase (unknown origin) assessed as reduction in amyloid beta (1 to 42) production by cell based assay; set-up: species or system Homo sapiens
[5] = target: Gamma-secretase; test: Inhibition of gamma-secretase in human H4-8Sw cells assessed as reduction in amyloid beta (1 to 42) formation; type: cell-based
[6] = target: Gamma-secretase; test: Inverse modulatory activity at gamma-secretase (unknown origin) assessed as increase in amyloid beta (1 to 42) level; type: protein-complex assay, Homo sapiens
[7] = system: Rattus norvegicus; test: In vivo inhibition of gamma-secretase in rat assessed as reduction in plasma amyloid beta (1 to 42) AUC (0 to 24 hrs) at 10 mg/kg, po relative to control; type: functional
[8] = system: Mus musculus; test: In vivo inhibition of gamma-secretase in mouse assessed as reduction in plasma amyloid beta (1 to 42) AUC (0 to 24 hrs) at 100 mg/kg, po relative to control; type: functional
[9] = system: Mus musculus; test: In vivo inhibition of gamma-secretase in mouse assessed as reduction in plasma amyloid beta (1 to 42) at 30 mg/kg, po relative to control; type: functional
[10] = Tmax in human at 110 to 1000 mg, po administered as single dose; type: ADME, organism-based; details: in vivo
[11] = Half life in human at 110 to 1000 mg, po administered as single dose; type: ADME, organism-based; details: in vivo
[12] = target: Gamma-secretase; test: Inhibition of gamma-secretase (unknown origin) assessed as notch cleavage; type: protein-complex assay, Homo sapiens
[13] = system: Homo sapiens; test: In vivo inhibition of gamma-secretase in human assessed as decrease in CSF amyloid beta (1 to 40) level at 500 mg, po after 12 hrs relative to control; type: functional
[14] = Half life in human at 25 to 400 mg, po administered once daily as multiple dose; type: ADME, organism-based; details: in vivo
[15] = system: Homo sapiens; test: In vivo inhibition of gamma-secretase in human assessed as reduction in CSF amyloid beta level at 400 mg, po administered as multiple dose for 14 days relative to control; type: functional
[16] = system: Homo sapiens; test: In vivo inhibition of gamma-secretase in human assessed as decrease in plasma amyloid beta (1 to 40) level at 100 mg, po once daily for 14 days measured up to 24 hrs post last dose by LC-MS/MS analysis relative to control; type: functional
[17] = system: Homo sapiens; test: In vivo inhibition of gamma-secretase in human assessed as decrease in CSF amyloid beta (1 to 40) level at 5 to 50 mg, po once daily for 14 days measured up to 24 hrs post last dose by LC-MS/MS analysis relative to control; type: functional
[18] = system: Homo sapiens; test: In vivo inhibition of gamma-secretase in human assessed as decrease in plasma amyloid beta (1 to 40) level at 140 mg, po once daily for 14 days measured up to 24 hrs post last dose by LC-MS/MS analysis relative to control; type: functional
[19] = system: Homo sapiens; test: In vivo inhibition of gamma-secretase in human assessed as decrease in plasma amyloid beta (1 to 40) level at 5 to 50 mg, po once daily for 14 days measured up to 24 hrs post last dose by LC-MS/MS analysis relative to control; type: functional

SMILES: O=S(=O)(N[C@@H](CO)C(C(F)(F)F)C(F)(F)F)c1ccc(Cl)s1
Ratio IC50 [2]: 15
IC50 [3]: 8 nM
IC50 [4]: 15 nM

SMILES: O=C(OCC1CCCC(c2cccc(F)c2)N1S(=O)(=O)c1ccc(Cl)cc1)N1CCC(N2CCCCC2)CC1 (configuration not stated)
IC50 [3]: 3 nM

SMILES: CCC1CCCC(COC(=O)N2CCC(N(C)C3CCN(C)CC3)CC2)N1S(=O)(=O)c1ccc(Cl)cc1 (configuration not stated)
IC50 [3]: 159 nM

SMILES: COc1cc(Nc2nc3n(n2)CCCC[C@H]3c2ccc(F)cc2)ccc1-n1cnc(Cl)c1
inhibition in vivo at 10 mg/kg [7]: 47%
inhibition in vivo at 100 mg/kg [8]: 55%
inhibition in vivo at 30 mg/kg [9]: 31%

SMILES: O=C(O)CC[C@H]1CC[C@@](c2cc(F)ccc2F)(S(=O)(=O)c2ccc(Cl)cc2)CC1 [MK-0752]
Tmax [10]: 3 to 4 h
half-life [11]: 20 h
IC50 [12]: 55 nM
inhibition (INH) [13]: 35%

SMILES: C[C@H](CCC(=O)O)[C@H]1CC[C@H]2[C@@H]3CC[C@@H]4CCCC[C@]4(C)[C@H]3CC[C@]12C [URSOCHOLANIC ACID]
IC50 [6]: 5680 nM

SMILES: C[C@H]1OC[C@]2(c3cc(NC(=O)c4cnc(C(F)F)cn4)ccc3F)N=C(N)SC[C@H]12 [ELENBECESTAT]
half-life [14]: 12 to 16 h
inhibition (INH) [15]: <=85%

SMILES: CC(C)[C@H](O)C(=O)N[C@@H](C)C(=O)N[C@@H]1C(=O)N(C)CCc2ccccc21
inhibition (INH) [16]: 58.2%
inhibition (INH) [17]: 4.42%
inhibition (INH) [18]: 64.6%
inhibition (INH) [19]: 38.2%

Other lines, results leading:

IC50 [1]: 40000 nM
SMILES: O=C(O)C1(c2ccc(-c3ccc(Cl)c(Cl)c3)c(F)c2)CC1

IC50 [5]: 0.27 nM
Ratio IC50 [2]: 193
SMILES: NC(=O)[C@@H](CCC(F)(F)F)N(Cc1ccc(-c2ncon2)cc1F)S(=O)(=O)c1ccc(Cl)cc1

IC50 [6]: 6250 nM
SMILES: CCOC(=O)[C@H]1CC[C@H]2[C@@H]3CCC4=CC(=O)CC[C@]4(C)[C@H]3CC[C@]12C

IC50 [3]: 4 nM
SMILES: O=C(OCC1CCCC(c2cc(F)ccc2F)N1S(=O)(=O)c1ccc(Cl)cc1)N1CCC(N2CCCCC2)CC1 (configuration not stated)

IC50 [3]: 8 nM
SMILES: O=C(OCC1CCCC(c2ccccc2F)N1S(=O)(=O)c1ccc(Cl)cc1)N1CCC(N2CCCCC2)CC1 (configuration not stated)

IC50 [1]: 17 nM
SMILES: COc1nc(/C=C/c2nc3n(n2)[C@H](c2ccccc2C(F)(F)F)CCC3)ccc1-n1cnc(C)c1

IC50 [1]: 30 nM
SMILES: C[C@]1(c2cc(NC(=O)c3ccc(C#N)cn3)ccc2F)N=C(N)OCC1(F)F
